{"source": "patent US20230030886A1", "about": "“CHEMOTHERAPEUTIC DRUG IMPLANT” (EXTRUDED PHARMACEUTICALS LTD, priority 2019, published 2023)", "system": "primary GBM cells taken from eight patients with recurrent GBM", "assay": "GBM cell cytotoxicity of IRN, TMZ and IRN+PVT, increasing concentrations, 5 days (MTT)", "format": "cell-based, human", "method": "TMZ, IRN and IRN+PVT were added at increasing concentrations up to 5 log nm to cultured primary GBM cells taken from eight patients with recurrent GBM. After 5 days of exposure an MTT assay was performed to assess % cell viability."}
{"smiles": "CCc1c2c(nc3ccc(OC(=O)N4CCC(N5CCCCC5)CC4)cc13)-c1cc3c(c(=O)n1C2)COC(=O)[C@]3(O)CC", "note": "[IRN, irinotecan]", "values": [{"measurement": "IC50", "setting": "Homo sapiens, 120 h, determined from FIG. 23, 5 days exposure, eight patient lines", "result": 3.16, "unit": "µM"}, {"measurement": "response of the eight patient cell lines to treatment", "setting": "up to 5 log nm, 5 days of exposure", "result": "Six of the eight patient cell lines responded"}]}
